According to PubChem BioAssay (NCI):
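96-well plates; 48 h exposure; 5 concentrations. Endpoints by linear interpolation between flanking doses. Not reached: highest tested concentration assigned. Definition used: TGI = concentration required for complete inhibition of growth.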

Legend:
Assay in all cases: inhibition of tumour cell growth, NCI panel, 48 h
[1] = tested on: 786-0 renal
[2] = tested on: UO-31 renal
[3] = tested on: HT29 colon
[4] = tested on: SF-268 CNS
[5] = tested on: OVCAR-5 ovarian
[6] = tested on: MOLT-4 leukemia
[7] = tested on: HOP-62 NSCLC
[8] = tested on: MDA-MB-435
[9] = tested on: HOP-92 NSCLC
[10] = tested on: COLO 205 colon
[11] = tested on: MDA-N

SMILES | TGI [1] [µM] | TGI [2] [µM] | TGI [3] [µM] | TGI [4] [µM] | TGI [5] [µM] | TGI [6] [µM] | TGI [7] [µM] | TGI [8] [µM] | TGI [9] [µM] | TGI [10] [µM] | TGI [11] [µM]
CS(=O)(=O)N1CC(CCl)c2ccc(O)cc21 (stereo not drawn) | 11.6 | 5.79 | 14.2 | 3.61 | 16.3 | > 100 | 13 | 3.86 | 9.05 | 4.34 | 3.54
CC(=O)SC(C[N+](=O)[O-])c1ccc2c(c1)OCO2 (stereo not drawn) | 8.95 | 11.9 | 5.56 | > 82.5 | 16 | 19.9 | 36.5 | 17.6 | 34.6 | 36.9 | 4.64
CCOC(=O)C(NC(=O)c1ccccc1)(N1CCN(c2cc3c(cc2F)c(=O)c(C(=O)O)cn3C2CC2)CC1)C(F)(F)F (stereo not drawn) | > 100 | 63.3 |  | 41.8 | 40.5 | 32.8 | > 100 | 45.2 | 38 | 30.8 | 46.8
C=C1CCCCCCCCC/C=C/1SCCCSC | > 100 | > 100 | > 100 | > 100 | > 100 | > 100 | > 100 | > 100 | > 100 | > 100 | > 100
Cc1ccc(C(=O)NCc2ccccc2)cc1N=NN(C)C | > 100 | > 100 | > 100 | > 100 | > 100 | > 100 | > 100 | > 100 | > 100 | > 100 | > 100
CC(=O)OCC1OC(n2c(C)c(N=Nc3ccc(Cl)cc3)c(C)c(C#N)c2=S)C(OC(C)=O)C(OC(C)=O)C1OC(C)=O (stereo not drawn) | 42.4 | > 100 | > 100 | > 100 | > 100 | > 100 | 51.7 | > 100 | 20.2 | > 100 | > 100
CN1CCCOC(c2ccc(Cl)cc2)O1 (stereo not drawn) | > 100 | > 100 | > 100 | > 100 | > 100 | > 100 | > 100 | > 100 | > 100 | > 100 | > 100
CN1CC=C(c2c(N)nc(N)[nH]c2=O)CC1 | > 100 | > 100 | > 100 | > 100 | > 100 | > 100 | > 100 | > 100 | > 100 | > 100 | > 100
N[C@H](Cc1ccc2oc3cc(=O)c4ccccc4c-3nc2c1)C(=O)O | > 100 | > 100 | > 100 | > 100 | > 100 | > 100 | > 100 | 30.3 | > 100 | > 100 | 38.1
Cc1ccc2c(c1)CC1(Cc3cccc(C)c3C1=O)C2=O (stereo not drawn) | > 100 | > 100 | > 100 | > 100 | > 100 | > 100 | > 100 | > 10 | > 100 | > 100 | > 10
Cn1nnnc1SC(F)(F)c1nc2ccccc2o1 | > 100 | > 100 | > 100 | > 100 | > 100 | > 100 | > 100 | > 100 | > 100 | > 100 | > 100
COc1ccc(C2c3cc4c(cc3OC(N3CCOCC3)C2C)OCO4)cc1 (stereo not drawn) | > 100 | > 100 | > 67.6 | > 100 | > 87.5 | > 31.6 | > 72.2 | > 60.4 | 58.2 | > 100 | > 82
Cc1c2ccc3ccccc3c2c[n+]2ccccc12 | 25.8 | 60.6 | > 100 | 6.92 | > 100 | 48.7 | 45.7 | 35.2 | 60.8 | 16.5 | 19.8
O=[N+]([O-])c1c(F)c(F)c2c(c1F)N(CCCCCl)c1ccccc1S2 | 23.8 | 30.5 | 6.74 | 18.3 | 33.6 | > 21.6 | 38.3 | 20.2 | 39 | 27.5 | 28.9
COCn1cnc2c(=O)nc(SC)n(-c3ccccc3)c21 | > 100 | > 100 | > 100 | > 100 | > 100 | > 100 | > 100 | > 100 | > 100 | > 100 | > 100
CN(C)CCCNc1ccc2ncn3c4ccc(O)cc4c(=O)c1c23 | 14.7 | 11.4 | 12.9 | 13.5 | 15.7 | 10.1 | 8.97 | 19.3 | 15.3 | 15.3 | 17.6
CCOP(=O)(OCC)/C(C#N)=C/c1ccc(-c2cc(C(F)(F)F)cc(C(F)(F)F)c2)o1 | 25.5 | 34.9 | 21.9 | 33.3 | 26.1 | 21.8 | 29.1 | 29 | 20.7 | 27.4 | 27.2
CCCCCCCCCCCC(=O)OC[C@@H](C[As](=O)(O)O)OC(=O)CCCCCCCCCCC | 26.5 | 27.9 | 25.3 | > 32.2 | 30.8 | > 77.2 | 28.8 | 15 | 4.44 | 36.6 | 15
O=C(Cn1c2ccc(Br)cc2c2nc3ccccc3nc21)NNC(=S)NC1CCCCC1 | 28.9 | 22.3 | 28.9 | 39.6 | 38.9 | 22.6 | 30.6 | 34.2 | 27.1 | 26 | 30.4
